Three molecules from patent US7842684B2, “Diphenylazetidinone derivatives possessing cholesterol absorption inhibitor activity” (AstraZeneca AB, priority 2006, dated 2010) can be followed below.

Series [1] in a line: Absorption in a Caco-2 cells model. Format: in vitro ADME. Conditions: human. Here is the method: Absorption of the compounds of formula (I) was tested in a Caco-2 cells model (Gastroenterology 1989, 96, 736): […]
The subject of series [2] is 14C-cholesterol absorption. In words: In Vivo Testing of Cholesterol Absorption Inhibitors (A). Conditions: 0.2 μmol/kg by gavage, procedure A, C57BL/6 female mice. Here is the method:
In Vivo Testing of Cholesterol Absorption Inhibitors (A)
C57BL/6 female mice were maintained on regular chow diet and housed in individual cages to collect faeces. Mice were fasted for 3 hours and then gavaged with vehicle or compound. Half an hour later the mice were gavaged with radiolabelled cholesterol. Six hours after the ^14C-cholesterol gavage blood samples were taken via the tail and plasma prepared to determine how much cholesterol were absorbed. 24 hours after the gavage of ^14C-cholesterol the mice were bled and plasma were prepared for analysis. Faeces were collected for 24 hours to assess absorption efficiency.

One may read the Papp as the rate of passage across a membrane or cell layer, normalised by area and donor concentration. A higher Papp goes with ready permeation. For the molecule `CS(=O)(=O)NCC#Cc1ccc(N2C(=O)[C@H](SC[C@H](O)c3ccc(F)cc3)[C@H]2c2ccc(OCC(=O)NCC(=O)N[C@H](CC3CCCCC3)C(=O)O)cc2)cc1` [Example 1, N-({4-[(2R,3R)-3-{[(2R)-2-(4-fluorophenyl)-2-hydroxyethyl]thio}-1-(4-{3-[(methylsulfonyl)amino]prop-1-yn-1-yl}phenyl)-4-oxoazetidin-2-yl]phenoxy}acetyl)glycyl-3-cyclohexyl-D-alanine], in series [1], the Papp amounted to 0.04 ×10⁻⁶ cm/s.
Molecule `CC(C)[C@@H](NC(=O)CNC(=O)COc1ccc([C@@H]2[C@@H](SC[C@H](O)c3ccc(F)cc3)C(=O)N2c2ccc(C#CCNS(C)(=O)=O)cc2)cc1)C(=O)O` [Example 2, N-({4-[(2R,3R)-3-{[(2R)-2-(4-fluorophenyl)-2-hydroxyethyl]thio}-1-(4-{3-[(methylsulfonyl)amino]prop-1-yn-1-yl}phenyl)-4-oxoazetidin-2-yl]phenoxy}acetyl)glycyl-D-valine] registered a Papp in series [1] of 0.02 ×10⁻⁶ cm/s.
As to `CS(=O)(=O)NCC#Cc1ccc(N2C(=O)[C@H](SC[C@H](O)c3ccc(F)cc3)[C@H]2c2ccc(OCC(=O)NCC(=O)O)cc2)cc1` [Example 6, N-({4-[(2R,3R)-3-{[(2R)-2-(4-fluorophenyl)-2-hydroxyethyl]thio}-1-(4-{3-[(methylsulfonyl)amino]prop-1-yn-1-yl}phenyl)-4-oxoazetidin-2-yl]phenoxy}acetyl)glycine], in series [2], the “inhibition of 14C-cholesterol absorption” value was determined as 90%.
